Data taken from PubChem BioAssay (NCI).
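Cultured in 96-well plates, cells were exposed to test compound for 48 hours across five concentrations. The concentration for 50% growth inhibition is given as GI50. TGI: concentration producing complete growth inhibition.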

Assays:
Experiment in all cases: NCI anticancer screen, dose series, 48 h
COLO 205 colon = tested on: COLO 205 colon
UO-31 renal = tested on: UO-31 renal
K-562 leukemia = tested on: K-562 leukemia
M14 melanoma = tested on: M14 melanoma
786-0 renal = tested on: 786-0 renal
MALME-3M melanoma = tested on: MALME-3M melanoma
SNB-75 CNS = tested on: SNB-75 CNS
A498 renal = tested on: A498 renal
IGROV1 ovarian = tested on: IGROV1 ovarian
SF-295 CNS = tested on: SF-295 CNS

| Compound | TGI (COLO 205 colon) | TGI (UO-31 renal) | TGI (K-562 leukemia) | TGI (M14 melanoma) | TGI (786-0 renal) | TGI (MALME-3M melanoma) | TGI (SNB-75 CNS) | TGI (A498 renal) | TGI (IGROV1 ovarian) | TGI (SF-295 CNS) | GI50 (COLO 205 colon) | GI50 (UO-31 renal) | GI50 (K-562 leukemia) | GI50 (M14 melanoma) | GI50 (786-0 renal) | GI50 (MALME-3M melanoma) | GI50 (SNB-75 CNS) | GI50 (A498 renal) | GI50 (IGROV1 ovarian) | GI50 (SF-295 CNS) |
| --- | --- | --- | --- | --- | --- | --- | --- | --- | --- | --- | --- | --- | --- | --- | --- | --- | --- | --- | --- | --- |
| CN1CCN(CCSC2Cc3cc(Cl)ccc3Sc3ccccc32)CC1 (centres undefined) | 3.26 µM | 21.6 µM | 4.9 µM | 3.66 µM | 9.11 µM | 5.8 µM | 15.7 µM | 24.7 µM | 25.6 µM | 15.6 µM | – | – | – | – | – | – | – | – | – | – |
| NC(N)=N/N=C(/c1nc2ccc([N+](=O)[O-])cc2[nH]c1=O)C(O)c1ccco1 (centres undefined) | > 100 µM | > 100 µM | > 100 µM | > 100 µM | > 100 µM | > 100 µM | > 100 µM | > 100 µM | > 100 µM | > 100 µM | – | – | – | – | – | – | – | – | – | – |
| O=C(O)C1CCc2ccc3ccccc3c2C1c1cccc2ccccc12 (centres undefined) | 77.7 µM | 40.5 µM | > 100 µM | 38.9 µM | 38.2 µM | 50.4 µM | 90.1 µM | 67.2 µM | 63.3 µM | 69.4 µM | – | – | – | – | – | – | – | – | – | – |
| COc1cc(/C=C/c2cc(C(F)(F)F)[nH]c(=O)n2)ccc1OCc1ccccc1F | 33.9 µM | 29.4 µM | 98.8 µM | 26.1 µM | 33.1 µM | 43.1 µM | 56.7 µM | 8.6 µM | 42 µM | 22 µM | 19.1 µM | 13 µM | 7.55 µM | 12.5 µM | 16.2 µM | 13.9 µM | 21 µM | 1.73 µM | 12.4 µM | 5.07 µM |
| CC1=CSC2=NC(c3ccc(Cl)c(Cl)c3)=CC(c3ccc(Cl)cc3)N12 (centres undefined) | > 100 µM | > 100 µM | > 100 µM | > 100 µM | > 100 µM | > 100 µM | > 100 µM | > 100 µM | > 100 µM | > 100 µM | > 100 µM | > 100 µM | > 100 µM | > 100 µM | > 100 µM | > 100 µM | > 95.3 µM | > 100 µM | > 100 µM | > 100 µM |
| Cc1cc2nc3c(=O)n(C)c(=O)nc-3n(-c3ccc(Cl)cc3)c2cc1C | 9.76 µM | 52.6 µM | 34.7 µM | 13.9 µM | 43.3 µM | 22.3 µM | 24.4 µM | 89.8 µM | 38.8 µM | 26.1 µM | – | – | – | – | – | – | – | – | – | – |
| O=C(Oc1ccc(O)c2c(=O)n3c(cc12)[nH]c1ccccc13)c1ccccc1 | 45.3 µM | 10.1 µM | 64 µM | 37 µM | 32.5 µM | – | > 100 µM | 42.4 µM | 24.6 µM | > 100 µM | 19.9 µM | 2.19 µM | 24.4 µM | 17.9 µM | 14.4 µM | – | 28.3 µM | 20.9 µM | 10.6 µM | 40.8 µM |
| Cc1cc2nc3c(C(OC4OC(CO)C(O)C(O)C4O)C(O)CO)nn(-c4ccccc4)c3nc2cc1C (centres undefined) | – | > 100 µM | > 100 µM | > 100 µM | > 100 µM | > 100 µM | > 100 µM | > 100 µM | – | > 100 µM | – | – | – | – | – | – | – | – | – | – |
| CC1=C2C(O)C(C(C)CO)C(O)CC2(C)C(O)CC1 (centres undefined) | > 100 µM | > 100 µM | – | > 100 µM | > 100 µM | > 100 µM | > 100 µM | > 100 µM | > 100 µM | > 100 µM | – | – | – | – | – | – | – | – | – | – |
| O=C(Nc1ccc(Cl)cc1)Nc1ccc(Cl)c(Cl)c1 | 3.42 µM | 10.1 µM | > 100 µM | > 100 µM | > 100 µM | – | > 100 µM | 7.94 µM | > 100 µM | > 100 µM | 1.85 µM | 2.32 µM | 2.63 µM | 4.71 µM | 4.43 µM | – | 2.59 µM | 3.05 µM | 4.78 µM | 4.02 µM |
| O=C1C=C(c2c(O)ccc3ccccc23)c2ccccc2C1=O | 21.7 µM | 6.52 µM | 23.4 µM | 16.8 µM | 4.89 µM | 26.7 µM | 12.9 µM | 13.4 µM | 9.01 µM | 12.4 µM | – | – | – | – | – | – | – | – | – | – |
| CCCCNc1nc(NC(C)(C)C)nc(NC(C)(C)C)n1 | > 100 µM | > 100 µM | > 100 µM | > 100 µM | > 100 µM | > 100 µM | 68.7 µM | 50.4 µM | > 100 µM | > 100 µM | 4.44 µM | 7.41 µM | 6.46 µM | 15.7 µM | 30.7 µM | 49.4 µM | 12.8 µM | 2.98 µM | 16.3 µM | 6.03 µM |
| CCOC(=O)[C@@H](C)C[C@H](Cc1ccccc1)NC(=O)c1csc([C@@H](C[C@H](C(C)C)N(C)C(=O)[C@@H](NC(=O)[C@H]2C[C@H](O[Si](C)(C)C(C)(C)C)CCN2C)C(C)C)OC(C)=O)n1 | 0.459 µM | > 8.33 µM | > 5.06 µM | 1.03 µM | > 4.36 µM | > 8.33 µM | 0.76 µM | 0.89 µM | > 8.33 µM | 3.41 µM | 0.145 µM | 0.44 µM | 0.17 µM | 0.198 µM | 0.286 µM | 0.215 µM | 0.205 µM | 0.167 µM | 0.272 µM | 0.249 µM |
| COc1cc2c(cc1C)NC(=O)/C2=C\c1cc(OC)c(OC)c(OC)c1 | > 100 µM | > 100 µM | 70.1 µM | > 100 µM | > 100 µM | > 100 µM | 31.4 µM | > 100 µM | > 100 µM | > 100 µM | > 100 µM | > 100 µM | 23.2 µM | > 100 µM | 32.4 µM | 72.3 µM | 12.9 µM | 31.1 µM | 72.1 µM | 39.5 µM |
| COc1cc(-c2nc3ccc(C)cc3[nH]2)ccc1OCC(=O)N=Nc1c(O)[nH]c2ccccc12 | – | 96.4 µM | – | 3.56 µM | 3.24 µM | 3.18 µM | 2.91 µM | 7.46 µM | 3.48 µM | 3.82 µM | – | 12.5 µM | – | 1.84 µM | 1.76 µM | 1.68 µM | 1.07 µM | 2.36 µM | 1.73 µM | 1.94 µM |
| O=C(Nc1ccccc1C(F)(F)F)c1cccc(NC2=C(Cl)C(=O)N(Cc3ccccc3)C2=O)c1 | > 100 µM | 97.8 µM | > 100 µM | > 76.8 µM | > 40.1 µM | > 100 µM | > 57.6 µM | 37 µM | 18.8 µM | > 45.5 µM | 39.4 µM | 19.8 µM | 3.55 µM | 23 µM | 12.4 µM | 42.6 µM | 30.7 µM | 11.3 µM | 0.985 µM | > 19.9 µM |
